26 compounds from patent US6716833B2, “Acetylenic α-amino acid-based sulfonamide hydroxamic acid tace inhibitors” (priority 1999, dated 2004) can be followed below.

Assay type in all cases: biochemical
Experiment [1] has as its target TNF-α converting enzyme (TACE) (Homo sapiens, UniProt P78536). Briefly: TACE inhibition (fluorescent peptidyl substrate). The note with it: read-out: TACE IC50.
The target in another experiment is MMP-13 (Homo sapiens, UniProt P45452). Put plainly: MMP-13 inhibition (thiopeptide or fluorescent peptide substrate).
In the next experiment the target is T1, MMP-1 (Homo sapiens, UniProt P03956).
T1 sequence (P03956 100-469): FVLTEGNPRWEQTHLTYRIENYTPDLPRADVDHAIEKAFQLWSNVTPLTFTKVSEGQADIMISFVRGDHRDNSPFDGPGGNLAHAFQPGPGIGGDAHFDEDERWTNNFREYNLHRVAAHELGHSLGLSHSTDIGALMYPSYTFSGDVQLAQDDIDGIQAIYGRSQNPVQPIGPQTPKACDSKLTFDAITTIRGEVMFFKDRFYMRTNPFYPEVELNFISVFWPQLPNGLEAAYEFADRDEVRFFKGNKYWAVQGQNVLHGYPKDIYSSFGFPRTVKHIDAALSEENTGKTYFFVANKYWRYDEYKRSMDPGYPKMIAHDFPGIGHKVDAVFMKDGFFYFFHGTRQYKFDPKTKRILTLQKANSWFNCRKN
Briefly: MMP-1 inhibition (thiopeptide or fluorescent peptide substrate).

The mark [2] stands for this setting: Table 10, read-out: MMP-13 IC50.
Setting [3] is: Table 11, read-out: MMP-13 IC50.

pIC50: −log10 of the molar value. Counter-ions that a name gives are not always drawn. Like-named read-outs stand apart in the source and are kept apart here.

Chain of TNF-α converting enzyme (TACE) (P78536 215-824, species assumed): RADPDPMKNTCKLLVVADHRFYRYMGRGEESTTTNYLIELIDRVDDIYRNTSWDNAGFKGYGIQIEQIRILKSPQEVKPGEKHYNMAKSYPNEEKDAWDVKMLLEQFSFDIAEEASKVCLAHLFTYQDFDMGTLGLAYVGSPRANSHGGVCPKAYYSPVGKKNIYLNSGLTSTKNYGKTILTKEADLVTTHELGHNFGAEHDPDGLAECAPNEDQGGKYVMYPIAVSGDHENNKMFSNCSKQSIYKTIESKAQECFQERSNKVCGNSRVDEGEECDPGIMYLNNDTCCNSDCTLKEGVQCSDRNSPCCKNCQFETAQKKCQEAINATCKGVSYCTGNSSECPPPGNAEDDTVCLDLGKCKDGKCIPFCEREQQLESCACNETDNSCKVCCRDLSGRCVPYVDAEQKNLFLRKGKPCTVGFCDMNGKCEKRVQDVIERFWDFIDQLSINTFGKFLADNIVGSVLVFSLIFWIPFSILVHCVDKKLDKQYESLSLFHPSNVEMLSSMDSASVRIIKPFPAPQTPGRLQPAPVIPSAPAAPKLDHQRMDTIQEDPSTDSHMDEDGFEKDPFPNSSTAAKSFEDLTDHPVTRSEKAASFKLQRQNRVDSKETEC

In general, pIC50 refers to the IC50 on a negative log10 scale, so that one unit is a factor of ten. Regarding `CC(=O)OCC#CCOc1ccc(S(=O)(=O)N2CCSC(C)(C)[C@@H]2C(=O)NO)cc1` [Example 261, 4-[4-({(3S3-[(Hydroxyamino)carbonyl]-2,2-dimethylthiomorpholinyl}sulfonyl)phenoxy]-2-butynyl Acetate], the pIC50 was 7.35 in experiment [1] (Table 10); 8.96 at MMP-13 (setting [2]); 6.99 at MMP-1 (Table 10, read-out: MMP-1 IC50).
As for `C#CC#CCOc1ccc(S(=O)(=O)N2CCSC(C)(C)[C@@H]2C(=O)NO)cc1` [Example 263], the pIC50 in experiment [1] (Table 10) was 7.38; on MMP-13 (setting [2]), 7.96; on MMP-1 (Table 10, read-out: MMP-1 IC50), 8.24.
On to `CC#CCOc1ccc(S(=O)(=O)N2[C@H](C)CSC(C)(C)[C@@H]2C(=O)NO)cc1` [Example 271, (3S,5R)-4-{[4-(2-Butynyloxy)phenyl]sulfonyl}-N-hydroxy-2,2,5-trimethyl-3-thiomorpholinecarboxamide], for which the pIC50 in experiment [1] (Table 11) was 7.35; at MMP-13 (setting [3]) it was 7.06; at MMP-1 (Table 11, read-out: MMP-1 IC50) it was 7.33.
Turning to `CC#CCOc1ccc(S(=O)(=O)NC(C(=O)NO)c2ccc(OCCOCCOCCOC)cc2)cc1` (stereo not drawn) [Example 209, 2-({[4-(2-Butynyloxy)phenyl]sulfonyl}amino)-N-hydroxy-2-(4-{2-[2-(2-methoxyethoxy)ethoxy]ethoxy}phenyl)acetamide], the negative-log IC50 (pIC50) in experiment [1] is 7.41; at MMP-13 (read-out: MMP-13 IC50), 6.88; at MMP-1 (read-out: MMP-1 IC50), roughly 5.00.
For the compound `CC#CCOc1ccc(S(=O)(=O)NC(C(=O)NO)c2ccc(OCCOCCOC)cc2)cc1` (stereo not drawn) [Example 210, 2-({[4-(2-Butynyloxy)phenyl]sulfonyl}amino)-N-hydroxy-2-{4-[2-(2-methoxyethoxy)ethoxy]phenyl}acetamide], the values for the pIC50 (in experiment [1]; at MMP-13 (read-out: MMP-13 IC50); on MMP-1 (read-out: MMP-1 IC50)) were 7.77, 6.56 and less than 5.00, respectively.
On to `CC#CCOc1ccc(S(=O)(=O)N2C[C@H](CC(=O)N3CCOCC3)SC(C)(C)[C@@H]2C(=O)NO)cc1` [Example 282, (3S,6S)-4-{[4-(2-Butynyloxy)phenyl]sulfonyl}-N-hydroxy-2,2-dimethyl-6-[2-(4-morpholinyl)-2-oxoethyl]-3-thiomorpholinecarboxamide], for which the pIC50 in experiment [1] (Table 11) was 7.02; on MMP-13 (setting [3]), 7.70; at MMP-1 (Table 11, read-out: MMP-1 IC50) it was 7.60.
The corresponding values for `CC#CCOc1ccc(S(=O)(=O)N2C[C@H](CC(=O)N3CCN(C)CC3)SC(C)(C)[C@@H]2C(=O)NO)cc1` [Example 283, (3S,6S)-4-{[4-(2-Butynyloxy)phenyl]sulfonyl}-N-hydroxy-2,2-dimethyl-6-[2-(4-methyl-1-piperazinyl)-2-oxoethyl]-3-thiomorpholinecarboxamide hydrochloride] are 6.84, 7.64 and 7.55.
With `CC#CCOc1ccc(S(=O)(=O)N2CCN(C)CCC2C(=O)NO)cc1` (stereo not drawn) [Example 293, 4-{[4-(2-Butynyloxy)phenyl]sulfonyl}-N-hydroxy-1-methyl-1,4-diazepane-5-carboxamide], the results for the pIC50 (in experiment [1]; against MMP-13 (MMP-13 IC50); at MMP-1 (read-out: MMP-1 IC50)) were 7.64, 7.68 and 6.62, respectively.
For the compound `CC1(C)SCCN(S(=O)(=O)c2ccc(OCC#CCCCCO)cc2)[C@H]1C(=O)NO` [Example 269, (3S)-N-Hydroxy-4-([4-[(7-hydroxy-2-heptynyl)oxy]phenyl}sulfonyl)-2,2-dimethyl-3-thiomorpholinecarboxamide], the pIC50 in experiment [1] (Table 10) is 7.28; on MMP-13 (setting [2]), 7.77; on MMP-1 (Table 10, read-out: MMP-1 IC50), 7.00.
For the compound `CC#CCOc1ccc(S(=O)(=O)N2C[C@H](CC(=O)OC(C)(C)C)SC(C)(C)[C@@H]2C(=O)NO)cc1` [Example 277, tert-Butyl{(2S,5S)-4-{[4-(2-butynyloxy)phenyl]sulfonyl}-5-[(hydroxyamino)carbonyl]-6,6-dimethylthiomorpholinyl}acetate], the pIC50 was 6.63 in experiment [1] (Table 11); 8.12 on MMP-13 (setting [3]); 8.11 on MMP-1 (Table 11, read-out: MMP-1 IC50).
In the case of `C#CCOc1ccc(S(=O)(=O)N2CCSC(C)(C)[C@@H]2C(=O)NO)cc1` [Example 258, (3S)-N-Hydroxy-2,2-dimethyl-4-{[4-(2-propynyloxy)phenyl]sulfonyl}-3-thiomorpholine Carboxamide], the pIC50 in experiment [1] (Table 9) was 7.72; on MMP-13 (Table 9, read-out: MMP-13 IC50) it was 9.10; at MMP-1 (Table 9, read-out: MMP-1 IC50), 9.22.
On to `CC#CCOc1ccc(S(=O)(=O)N2CCCS(=O)(=O)C[C@@H]2C(=O)NO)cc1` [Example 175], for which the figures for the pIC50 (in experiment [1]; on MMP-13 (read-out: MMP-13 IC50); at MMP-1 (read-out: MMP-1 IC50)) were 7.55, 7.30 and 5.99, respectively.
As to `CC1(C)SCCN(S(=O)(=O)c2ccc(OCC#CCCCCN)cc2)[C@H]1C(=O)NO` [Example 253], the pIC50 in experiment [1] (Table 10) was 7.40; on MMP-13 (setting [2]) it was 8.14; on MMP-1 (Table 10, read-out: MMP-1 IC50) it was 7.04.
Take `CC#CCOc1ccc(S(=O)(=O)N2C[C@H](CC(=O)O)SC(C)(C)[C@@H]2C(=O)NO)cc1` [Example 278, [(2S,5S)-4-{[4-(2-Butynyloxy)phenyl]sulfonyl}-5-[(hydroxyamino)carbonyl]-6,6-dimethylthiomorpholinyl}acetic Acid]: the pIC50 was 7.70 in experiment [1] (Table 11); 8.17 on MMP-13 (setting [3]); 7.77 on MMP-1 (Table 11, read-out: MMP-1 IC50).
For `CC#CCOc1ccc(S(=O)(=O)NC(C(=O)NO)c2ccc(OCCc3scnc3C)cc2)cc1` (stereo not drawn) [Example 208, 2-({[4-(2-Butynyloxy)phenyl]sulfonyl}amino)-N-hydroxy-2-{4-[2-(4-methyl-1,3-thiazol-5-yl)ethoxy]phenyl}acetamide], the negative-log IC50 (pIC50) in experiment [1] was 7.16; at MMP-13 (read-out: MMP-13 IC50), 6.64; on MMP-1 (read-out: MMP-1 IC50), less than 5.00.
Consider `CC#CCOc1ccc(S(=O)(=O)N2CCN(C(=O)OC(C)(C)C)CCC2C(=O)NO)cc1` (stereo not drawn) [Example 291, tert-Butyl 4-{[4-(2-Butynyloxy)phenyl]sulfonyl}-5[(hydroxyamino)carbonyl]-1,4-diazepane-1-carboxylate], for which the values for the pIC50 (in experiment [1]; on MMP-1 (read-out: MMP-1 IC50)) were 7.13 and 7.04, respectively.
For `CC#CCOc1ccc(S(=O)(=O)N2C[C@H](CC(N)=O)SC(C)(C)[C@@H]2C(=O)NO)cc1` [Example 280, (3S,6S)-6-(2-Amino-2-oxoethyl)-4-{[4-(2-butynyloxy)phenyl]sulfonyl}-N-hydroxy-2,2-dimethyl-3-thiomorpholinecarboxamide], the pIC50 in experiment [1] (Table 11) was 7.38; at MMP-13 (setting [3]), 7.54; at MMP-1 (Table 11, read-out: MMP-1 IC50), 7.46.
For `CC#CCOc1ccc(S(=O)(=O)N2CCCSC(C)(C)[C@@H]2C(=O)NO)cc1` [Example 173], the pIC50 was 6.95 in experiment [1], 7.80 at MMP-13 (read-out: MMP-13 IC50) and 7.70 on MMP-1 (read-out: MMP-1 IC50).
For `CC#CCOc1ccc(S(=O)(=O)N2CCCSC[C@@H]2C(=O)NO)cc1` [Example 174], the pIC50 is 7.70 in experiment [1], 7.44 at MMP-13 (read-out: MMP-13 IC50) and 6.39 on MMP-1 (read-out: MMP-1 IC50).
Consider `CC1(C)SCCN(S(=O)(=O)c2ccc(OCC#CCF)cc2)[C@H]1C(=O)NO` [Example 264, (3S)-4-({4-[(4-Fluoro-2-butynyl)oxy]phenyl}sulfonyl)-N-hydroxy-2,2-dimethyl-3-thiomorpholine Carboxamide], for which the negative logarithm of the IC50 (pIC50) in experiment [1] (Table 10) is 7.46; at MMP-13 (setting [2]), 8.60; on MMP-1 (Table 10, read-out: MMP-1 IC50), 7.96.
Consider `CC#CCOc1ccc(S(=O)(=O)N2C=CSC(C)(C)[C@@H]2C(=O)NO)cc1` [Example 379, (3S)-4-{[4-(2-Butynyloxy)phenyl]sulfonyl}-N-hydroxy-2,2-dimethyl-3,4-dihydro-2H-1,4-thiazine-3-carboxamide], for which the pIC50 in experiment [1] (Table 11) is 7.80; at MMP-13 (setting [3]) it was 6.57; at MMP-1 (Table 11, read-out: MMP-1 IC50) it was 6.50.
For the compound `CC#CCOc1ccc(S(=O)(=O)N(C)C(C(=O)NO)C(C)C)cc1` (stereo not drawn) [Example 9, 2-[(4-but-2-ynyloxy-Benzenesulfonyl)-methyl-amino]-N-hydroxy-3-methyl-butyramide], the results for the pIC50 (in experiment [1]; at MMP-13 (read-out: MMP-13 IC50); at MMP-1 (read-out: MMP-1 IC50)) were 8.13, 8.35 and 7.40, respectively.
With `CC(C)(C)OC(=O)NCCCCC#CCOc1ccc(S(=O)(=O)N2CCSC(C)(C)[C@@H]2C(=O)NO)cc1` [Example 252, tert-Butyl 7-[4-({(3S)-3-[(Hydroxyamino)carbonyl]-2,2-dimethylthiomorpholinyl}sulfonyl)phenoxy]-5-heptynylcarbamate], the pIC50 in experiment [1] (Table 10) is 6.70; on MMP-13 (setting [2]) it was 8.37; on MMP-1 (Table 10, read-out: MMP-1 IC50), 7.06.
`CCC#CCOc1ccc(S(=O)(=O)N2CCSC(C)(C)[C@@H]2C(=O)NO)cc1` [Example 259, (3S)-N-Hydroxy-2,2-dimethyl-4-{[4-(2-pentynyloxy)phenyl]sulfonyl}-3-thiomorpholine Carboxamide]: the pIC50 is 7.55 in experiment [1] (Table 9); 8.30 at MMP-13 (Table 9, read-out: MMP-13 IC50); 8.23 at MMP-1 (Table 9, read-out: MMP-1 IC50).
For `CC#CCOc1ccc(S(=O)(=O)NC(C(=O)NO)c2ccc(OCCN(C)C)cc2)cc1` (stereo not drawn) [Example 207, 2-({[4-(2-Butynyloxy)phenyl]sulfonyl}amino){4-[2-(dimethylamino)ethoxy]phenyl}-N-hydroxyacetamide], the results for the pIC50 (in experiment [1]; at MMP-13 (read-out: MMP-13 IC50); at MMP-1 (read-out: MMP-1 IC50)) were 7.28, 6.95 and less than 5.00, respectively.
`CC#CCOc1ccc(S(=O)(=O)NC(C(=O)NO)c2ccc(OCCNC)cc2)cc1` (stereo not drawn) [Example 204] had a pIC50 on MMP-1 (MMP-1 IC50) of roughly 5.00.
